Patent publication US8629144B2, “Polymorphic and hydrate forms, salts and process for preparing 6-{difluoro[6-(1-methyl-1H-pyrazol-4-yl)[1,2,4]triazolo[4,3-b]pyridazin-3-yl]methyl}quinoline” (Janssen Pharmaceutica NV, priority 2007, dated 2014)
Values joined by “and” are separate entries in the source; they are usually repeats but may differ in a detail not shown here. Identical values can stand only once. Counter-ions that a name gives are not always drawn.

Experiments:
c-Met kinase = target: T1, c-Met kinase (Homo sapiens, UniProt P08581); test: c-Met autophosphorylation assay with radioactive ATP; format: biochemical; conditions: [33P]-γ-ATP, 60 min room temperature, read-out: IC50 for c-Met kinase inhibition
T1 construct: His-6 (N); purchased Panvera Lot 40047X; host or cells: Sf9 insect cells (baculovirus), for the His6-MetKin construct scaled up at Pan Vera
T1 sequence (P08581 956-1390 limits assumed): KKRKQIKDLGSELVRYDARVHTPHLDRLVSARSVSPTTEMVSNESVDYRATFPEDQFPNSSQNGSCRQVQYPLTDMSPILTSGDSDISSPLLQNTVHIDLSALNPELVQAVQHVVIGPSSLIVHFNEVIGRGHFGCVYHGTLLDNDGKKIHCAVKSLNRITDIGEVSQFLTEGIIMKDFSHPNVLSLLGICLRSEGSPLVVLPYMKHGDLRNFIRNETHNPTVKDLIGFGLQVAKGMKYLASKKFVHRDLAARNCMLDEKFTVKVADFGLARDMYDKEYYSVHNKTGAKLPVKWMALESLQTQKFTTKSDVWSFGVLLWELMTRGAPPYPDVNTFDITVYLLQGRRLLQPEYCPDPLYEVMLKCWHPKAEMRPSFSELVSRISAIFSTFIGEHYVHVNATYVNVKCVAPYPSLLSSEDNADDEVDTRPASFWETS
Experimental: The present autophosphorylation assay uses radioactive ATP to measure the incorporation of phosphate upon c-Met autophosphorylation. The assay procedure for screening is as follows.
c-Met enzyme (purchased from Panvera, Lot 40047X, 2.4 mg/ml); “Assay buffer” (13.3 mM MOPS pH 7; 0.33 mM EDTA); “Enzyme buffer” (20 mM MOPS pH 7; 1 mM EDTA; 0.01% Brij 35; 5% glycerol; 0.1% beta mercapto-EtOH); 100 mM MgAc; 3% phosphoric acid; 75 mM phosphoric acid; 1 mM ATP-stock; [^33P]-γ-ATP (NEN, NEG602H); round-bottom 96-well plates (Corning, 3799); Filtermat P30-filters (Perkin Elmer); “Enzyme mix” (698.80 μl of Enzyme buffer as above+1.17 μl of c-Met enzyme as above); “Substrate mix” (946.00 μl of 100 mM MgAc+50.00 μl ATP (0.1 mM)+4.00 μl [^33P]-γ-ATP as above).
• 1. Distribute 15 μl assay buffer per well. • 2. Add 0.5 μl dilution of tested c-Met inhibitor (e.g., compound (I) or its forms or salts) in DMSO. • 3. Add 5 μl Enzyme mix per well (control: Enzyme buffer in blanc). • 4. Add 5 μl Substrate mix per well. • 5. Incubate at room temperature for 60 min. • 6. Stop reaction with 3% phosphoric acid, 5 μl per well • 7. Shake plate • 8. Spot 5 μl from a well to filtermat P30. • 9. […] Expose the filter to phosphor storage cassette overnight on low energy phosphor storage plate, and detect and quantify the signal using a suitable phosphorimager (herein, Typhoon) Results

[1] = Water adsorption (hygroscopicity) of salts of compound (I); format: physicochemical
Experimental: Free base of compound (I) (3 g; 7.95 mmol) was dissolved in absolute ethanol (40 mL) and heated to 78° C. An acid (HCl 6M in 2-propanol, 2.0 ml (12 mmol); HBr 48% in water, 0.98 mL (8.75 mmol); methane sulphonic acid, 917 mg (9.54 mmol); ethane sulphonic acid, 1.05 g (9.54 mmol) or p-toluene sulphonic acid monohydrate (1.66 g (8.75 mmol)) was added to the hot reaction mixture. The reaction mixture was allowed to cool to room temperature. The resulting precipitate was filtered off, washed with ethanol and dried under vacuum at 60° C.
The obtained solids were analysed by acid titration, Karl-Fisher titration and HPLC. A physical characterisation was performed (DSC, TGA, XRD and IR, DVS).

[2] = Absorption and plasma kinetics after oral administration of salts to rat; conditions: male, SD, rat, plasma, po
Experimental: Five male SD rats (225±11 g) were used per salt form. From each rat a complete plasma concentration time profile was obtained. Tap water and food were available ad libitum. The test involved salts of compound (I) with HBr, HCl, methanesulphonic acid (mesylate), ethanesulphonic acid (esylate) or p-toluenesulphonic acid (tosylate). The individual salts were dispersed in a 0.5% methocel suspension to a final concentration of 1 mg base eq./ml. The formulations were stored at room temperature.
Administration was oral by gastric intubation: 10 ml/kg to obtain a dose of 10 mg base eq./kg.
Blood samples were collected 30 min, 1, 2, 4, 7 and 24 h after dose administration.
Blood was collected by multiple sampling from a tail vein into Multivette® 600 K3E tubes (Sarstedt). Samples were placed immediately on melting ice and plasma was obtained following centrifugation at 4° C. for 10 minutes at approximately 1900×g. All samples were shielded from daylight and stored at ≦−18° C. prior to analysis.
A limited pharmacokinetic analysis was performed using WinNonlin™ Professional (Version 5.1). A non-compartmental analysis using the lin/log trapezoidal rule with lin/log interpolation was used for all data.

[3] = Water solubility of salts of compound (I); format: physicochemical; conditions: 24 hours at 20° C.
Experimental: An excess of different salts of compound (I) was agitated with water during 24 hours at 20° C. Following filtration, the concentration of compound (I) in the solution was determined by UV spectrometry.

S114 tumors = test: S114 tumor model; format: in vivo, athymic nude mice; conditions: 100 mg/kg p.o. q.d., four consecutive days
Experimental: Female athymic nude mice (CD-1, nu/nu, 9-10 weeks old) were obtained from Charles River Laboratories (Wilmington, Mass.) and were maintained according to NIH standards. All mice were group housed (5 mice/cage) under clean-room conditions in sterile micro-isolator cages on a 12-hour light/dark cycle in a room maintained at 21-22° C. and 40-50% humidity. Mice were fed irradiated standard rodent diet and water ad libitum. All animals were housed in a Laboratory Animal Medicine facility that is fully accredited by the American Association for Assessment and Accreditation of Laboratory Animal Care (AAALAC). All procedures involving animals were conducted in compliance with the NIH Guide for the Care and Use of Laboratory Animals and all protocols were approved by an Internal Animal Care and Use Committee (IACUC).
The murine NIH 3T3 derived cell line S114, which has been engineered to over-express both […] (HGF) and the human c-Met receptor, was propagated in DMEM media (Life Technologies, Bethesda, Md.). Immediately prior to injection, cells were washed counted and resuspended in PBS. Female athymic nude mice weighing no less than 20-21 grams were inoculated subcutaneously in the left inguinal region of the thigh with 5×10^6 cells in a delivery volume of 0.1 mL. Tumors were allowed to grow to for five days.
Mice were dosed orally at 100 mg/kg compound in 20% HPBCD or with vehicle (20% HPBCD, control group). Dosing was continued for 4 consecutive days. Compounds of the invention were prepared fresh daily as a clear solution in 20% HPBCD and administered as described above. Body weight was measured at the end of the study and a loss of body weight >10% was used as an indication of lack of compound tolerability. Unacceptable toxicity was defined as body weight loss >20% during the study. Mice were closely examined daily at each dose for overt clinical signs of adverse, drug-related side effects.
On the day of study termination, a final tumor volume and final body weight were obtained on each animal. […]

U87MG tumors = test: U87MG glioblastoma tumour xenograft model; format: in vivo, athymic nude mice; conditions: for Decrease of mean tumor volume: Day 12, p<0.01
Experimental: The U87MG glioblastoma cell line (Piedmont Research Center LLC) expresses the c-Met receptor and responds to […] (HGF). This study investigated whether treatment with an inhibitor of c-Met is efficacious against the U87MG glioblastoma tumor xenograft model. This study utilized a tumor growth inhibition (TGI) assay to test per os (p.o.) compound monotherapy in groups of fifteen nude mice. A control group was treated with vehicle, 20% Hydroxypropyl Beta-Cyclodextrin (HPBCD). All treatments began on Day 1 (D1) in mice bearing established subcutaneous (s.c.) U87MG tumors.
Female athymic nude mice (Harlan) were 10-11 weeks old with a BW range of 18.1-25.0 g on D1 of the study. The animals were fed ad libitum water (reverse osmosis, 1 ppm Cl) and NIH 31 Modified and Irradiated Lab Diet® consisting of 18.0% crude protein, 5.0% crude fat, and 5.0% crude fiber. The mice were housed on irradiated ALPHA-Dri® bed-o-cobs® Laboratory Animal Bedding in static microisolators on a 12-hour light cycle at 21-22° C. (70-72° F.) and 40-60% humidity. All animals were housed in a Laboratory Animal Medicine facility that is fully accredited by the American Association for Assessment and Accreditation of Laboratory Animal Care (AAALAC). All procedures involving animals were conducted in compliance with the NIH Guide for the Care and Use of Laboratory Animals and all protocols were approved by an Internal Animal Care and Use Committee (IACUC).
Xenografts were initiated from U87MG human glioblastoma tumor fragments maintained by serial transplantation in athymic nude mice. Each test mouse received a subcutaneous U87MG tumor fragment (1 mm^3) implanted in the right flank, and the growth of tumors was monitored as the average size approached 200 mm^3. Twelve days later, on Day 1 of the study, the animals were sorted into 4 groups (n=12-15 mice/group) with individual tumor volumes ranging from 172-352 mm^3 and group mean tumor volumes of 216 mm^3. Tumor volume was calculated using the formula: […]
Dosing solutions of compounds of the present invention were prepared fresh weekly in a vehicle consisting of 20% Hydroxypropyl Beta-Cyclodextrin (HPBCD) in water. In all groups, the dosing volume of 0.2 mL/20-g mouse was scaled to the body weight of each animal. Doses were given to allow for the HCl salt form of the compound.
TGI was calculated from the difference between the median tumor volumes of vehicle-treated and drug-treated mice, expressed as a percentage of the median tumor volume of the vehicle-treated control group, by the following relation:
The MTV (n) is defined as the median tumor volume (MTV) for the number of animals, n, remaining in the study on that day.
Animals were weighed daily for the first five days of the study and then twice weekly. The mice were examined frequently for overt signs of any adverse, drug-related side effects, and clinical signs of toxicity were recorded when observed. Acceptable toxicity is defined as a group mean body-weight (BW) loss of less than 20% during the study, and not more than one treatment-related (TR) death among ten animals. A death is classified as TR if it is attributable to treatment side effects as evidenced by clinical signs and/or necropsy, or due to unknown causes during the dosing period or within 10 days of the last dose. A death is classified as non treatment-related (NTR) if there is no evidence that the death was related to drug side effects. […]

With `Cn1cc(-c2ccc3nnc(C(F)(F)c4ccc5ncccc5c4)n3n2)cn1` [HCl salt] the IC50 (c-Met kinase) was roughly 0.0132 µM, the Hygroscopicity [1] was “hygroscopic” and the Water adsorbed ([1]; dried 1 h at 25° C. under dry nitrogen flow, depending on the atmospheric humidity) was “up to 11.4%”. The concentration at 0.5 h ([2]; 10 mg base eq./kg) was 3.09 ± 0.235 µg/mL, the concentration at 1 h ([2]; 10 mg base eq./kg) was 4.21 ± 0.685 µg/mL and the concentration at 2 h ([2]; 10 mg base eq./kg) was 4.29 ± 0.803 µg/mL. It also gave a concentration at 4 h ([2]; 10 mg base eq./kg) of 2.71 ± 0.706 µg/mL, a concentration at 7 h ([2]; 10 mg base eq./kg) of 1.94 ± 0.702 µg/mL and a concentration at 24 h ([2]; 10 mg base eq./kg) of 0.0561 ± 0.0166 µg/mL. The AUC0-inf ([2]; 10 mg/kg) was 29.9 ± 7.26 µg·h/mL, the AUC(0-t) ([2]; 10 mg/kg) was 29.6 ± 7.21 µg·h/mL and the Cmax ([2]; 10 mg/kg) was 4.43 ± 0.683 µg/mL. For the same compound, the Tmax ([2]; 10 mg/kg) was 1.6 ± 0.5 h, the half-life ([2]; 10 mg/kg) was 3.5 ± 0.3 h and the “Measured pH” value ([3]; saturated solution in water) was “pH = 1.8”. For the same compound, the solubility thermodynamic at 24 h ([3]; water, UV spectrometry) was 0.38 mg/mL.
For `Cn1cc(-c2ccc3nnc(C(F)(F)c4ccc5ncccc5c4)n3n2)cn1` [Compound (I), 6-{difluoro[6-(1-methyl-1H-pyrazol-4-yl)[1,2,4]triazolo[4,3-b]pyridazin-3-yl]methyl}quinoline], the IC50 (c-Met kinase) was roughly 0.00701 µM, the “S114 tumor regression, mice responding” value (S114 tumors) was “regressed in all five mice” and the “Mice with tumors regressed to non-palpable, non-detectable” value (S114 tumors; end of study) was “three of the five mice”. For the same compound, the Final tumour weights (S114 tumors; individual mice) was 0.017 g (2×) and no tumour (3×), the “Decrease of mean tumor volume” value (U87MG tumors; 25 mg/kg p.o. (q.d. day 1, b.i.d. to day 12)) was 94% and the “Decrease of mean tumor volume” value (U87MG tumors; 50 mg/kg p.o. (b.i.d. 7 days, 24-hr pause, q.d. to day 12)) was 96%. The “Decrease of mean tumor volume” value (U87MG tumors; 75 mg/kg p.o. (b.i.d. 7 days, 24-hr pause, q.d. to day 12)) was 97%, the “Tumor growth inhibition of U87MG tumors” value (U87MG tumors; p.o. 25, 50 and 75 mg/kg, all doses, p<0.01) was “statistically significant” and the Tumor regression (U87MG tumors; p.o. 25, 50 and 75 mg/kg, all three doses) was “Tumor regression was also observed”.
